Test [1] addresses T1, NLK (Homo sapiens, UniProt Q9UBE8).
T1 construct: NLK, p38, or ALK5 for in vitro kinase assays were immunopurified from Kp53A1 cells; endogenous in cells; immunoprecipitated with anti-NLK (Abcam AB97642)
T1 sequence (Q9UBE8 1-527): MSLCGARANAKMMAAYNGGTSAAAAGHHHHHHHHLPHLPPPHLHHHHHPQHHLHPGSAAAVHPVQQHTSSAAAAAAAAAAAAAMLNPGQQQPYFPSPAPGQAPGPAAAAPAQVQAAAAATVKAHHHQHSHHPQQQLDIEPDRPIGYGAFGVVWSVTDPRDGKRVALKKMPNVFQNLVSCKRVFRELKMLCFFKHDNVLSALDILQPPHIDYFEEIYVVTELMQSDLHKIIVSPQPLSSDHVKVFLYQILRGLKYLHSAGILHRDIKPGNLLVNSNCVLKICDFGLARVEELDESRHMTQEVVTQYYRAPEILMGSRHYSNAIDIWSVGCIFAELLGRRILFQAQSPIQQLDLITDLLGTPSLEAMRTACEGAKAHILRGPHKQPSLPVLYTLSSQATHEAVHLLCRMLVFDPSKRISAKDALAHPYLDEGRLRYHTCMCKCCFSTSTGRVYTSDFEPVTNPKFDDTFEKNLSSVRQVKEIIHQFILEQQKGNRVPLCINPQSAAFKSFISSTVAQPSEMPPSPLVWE
Kind of test: DiscoveRX kinase profile analysis of SD208, NLK. It counts as biochemical. The conditions noted are these: kinase profiling, Supplementary Fig. 2a. How it is done:
Supplementary Fig. 2. SD208 and NLK siRNA are specific. (a) The top 22 hits from DiscoveRX kinase profile analysis of SD208. (b) Human cord blood CD34+ progenitors were transduced shRNA against luciferase (shLuc) or RPS19 (shRPS19) and differentiated in erythroid media in the presence […]
days. Cells were counted and assessed for cell surface expression of CD235. Effective inhibition of p38 activity was assessed by lysis of treated controls and Western blot analysis of pp38. (c) Cord blood CD34+ progenitors were transduced with shRNA against RPS19 and either non-targeting (NT) or 1 of 3 different shRNA sequences against NLK. After sorting, cells were differentiated for 12 days. Lysates were subjected to qRT-PCR to assess NLK expression (Upper) and the number of CD235+ erythroblasts was determined by flow cytometry and is expressed relative to erythroid expansion of control cells (Lower). (d) Kp53A1 cells were untransfected (Unt), transfected with a non-targeting sequence (NT), or siRNA against NLK (siNLK). Phosphorylation status of p38, JNK and ERK was determined by treating transfected Kp53A1 cells EPO prior to Western blot analysis for pp38, pJNK and pERK. Transfected cells were cultured for 48 hours prior to lysis. Lysates were subjected to SDS-PAGE and protein expression of the listed proteins was determined by Western blot analysis. […]

Test [2] relates to RPS19-insufficient Lin-Kit+ cells. Kind of test: Erythroid differentiation (Ter119+) of Lin-Kit+ cells from tetracycline-inducible shRPS19 mice. It counts as cell-based, mouse. Particulars: SD208 with doxycycline; 8 days; three mice; without SD208 24.3, 20.3, 18.5%; Fig. 8b. How it is done:
Cells were counted and assessed for cell surface expression of CD235. b Lin-Kit^+ hematopoietic progenitors were obtained from three mouse embryos expressing tetracycline-inducible shRNA against RPS19 at day E14.5 or three untreated mice, and thee mature RPL11^+/+ or three mature RPL11^+/lox mice treated with tamoxifen for eight weeks. […] Values were expressed as a percentage relative to untreated controls. c, d Intracellular phosphorylation of NLK at […] was determined by capillary electrophoresis using the Peggy SueTM Automated Western blotting platform. […] After counting the total cell population, the ratio of CD235^+ erythroblasts was determined by flow cytometry and number of CD235^+ erythroblasts calculated. This was expressed as a percentage of the average number of erythroid cells present in untreated healthy controls. f NLK phosphorylation was assessed by capillary electrophoresis as above. Bars represent means ± SD with individual data points overlaid. […] Statistics: two-tailed Student's t test, significant *p < 0.05. Also see Supplementary Fig. 8. Source data are provided as a Source Data file. […] RPS19-insufficiency reduced Ter119^+ erythroblasts to 24.3, 20.3, and 18.5% of controls differentiated in the absence of doxycycline.

Where “and” joins values, the source holds several entries; their conditions need not be identical. Identical values can stand only once.

As for `Fc1ccc(Cl)cc1-c1nc(Nc2ccncc2)c2nccnc2n1` [SD208], the inhibition – broadly, the percentage by which the read-out fell short of the control – at 10 µM in test [1] worked out at 96.8%. In addition, the “Ter119+ erythroblasts, % of controls differentiated without doxycycline” value in test [2] is 83.2% and 81.1% and 76.6%.

(Values after paper PMC7334220, “Diamond Blackfan anemia is mediated by hyperactive Nemo-like kinase” (Nature Communications, 2020).)
